Data taken from the supplement of paper PMC6723410.

System: GUMC-403
Assay: viability at highest tested concentration (max response) relative to DMSO (% of DMSO control); higher = less cytotoxic
Conditions: library / dose series: MIPE library, 11-point 1:3 dilution, 48 h
Method in brief: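 GUMC-403 papilloma cells, derived from a patient and expanded by conditional reprogramming, were dispensed at 700/well into 1536-well plates in 5 μL F + Y medium. A pin tool delivered 23 nL of each compound across an 11-point 1:3 dilution series for 48 h. CellTiter-Glo luminescence, read on a ViewLux, was normalised so that vehicle wells equalled 100% and empty wells 0%. Values report viability at the highest tested concentration relative to vehicle control.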

Row | SMILES | viability (top concentration 46.1 µM) | also measured
1 | C=C1C(=O)OC(CCCCCCCC)C1C(=O)O (configuration not stated) | 121 | 
2 | COc1cccc2c1C(=O)c1c(O)c3c(c(O)c1C2=O)C[C@@](O)(C(=O)CO)C[C@@H]3O[C@H]1C[C@H](N)[C@H](O[C@H]2CCCCO2)[C@H](C)O1 | 57.9 | 
3 | C1CN\2C[C@@H](\N=C2S1)C3=CC=CC=C3 | 125 | 
4 | Nc1ncnc2nc(-c3ccc(N4CCOCC4)nc3)cc(-c3cccc(Br)c3)c12 | 110 | 
5 | C[S+](=O)([O-])c1ccc(C(=O)Nc2ccc(Cl)c(-c3ccccn3)c2)c(Cl)c1 | 100 | 
6 | CC(C)OC(=O)CCC/C=C\C[C@@H]1[C@@H](/C=C/[C@@H](O)COc2cccc(C(F)(F)F)c2)[C@H](O)C[C@@H]1O | 118 | 
7 | N[S+](=O)([O-])c1ccc(Nc2nc(OCC3CCCCC3)c3[nH]cnc3n2)cc1 | 46.9 | 
8 | CCOC(=O)c1c(/C(C#N)=C\N)c2ccc(Cl)c(Cl)c2n1C | 92.2 | 
9 | CN[C@@H]1[C@@H](O)[C@@H](O[C@@H]2[C@@H](O)[C@H](O[C@H]3O[C@H](CN)[C@@H](O)[C@H](O)[C@H]3O)[C@@H](N)C[C@H]2NC(=O)[C@@H](O)CN)OC[C@]1(C)O | 96.8 | 
10 | CC(C)CC(=O)N[C@H](C(=O)N[C@H](C(=O)N[C@@H](CC(C)C)[C@@H](O)CC(=O)N[C@@H](C)C(=O)N[C@@H](CC(C)C)[C@@H](O)CC(=O)O)C(C)C)C(C)C | 99.5 | 
11 | CCCCCCCCOc1ccccc1C(=O)Nc1ccc(C(=O)OCC[N+](C)(CC)CC)cc1 | 104 | 
12 | N[C@@H](Cc1cc(I)c(Oc2cc(I)c(O)c(I)c2)c(I)c1)C(=O)O | 123 | 
13 | CCOC(=O)N1CCN(/[N+]([O-])=N/Oc2ccc([N+](=O)[O-])cc2[N+](=O)[O-])CC1 | 118 | 
14 | CC(C)(S)[C@@H](N)C(=O)O | 128 | 
15 | CCC[S+]([O-])c1ccc2[nH]c(NC(=O)OC)nc2c1 (configuration not stated) | 92.2 | 
16 | COc1cc(NCc2ccc3nc(N)nc(N)c3c2C)cc(OC)c1OC | 99.5 | 
17 | C\C1=C\C(=O)OC2=C1C=CC(=C2)O | 110 | 
18 | C[C@@H]1CC[C@@]2(OC1)OC1CC3C4CC=C5CC(O)CCC5(C)C4CCC3(C)C1[C@@H]2C (some centres not stated) | 120 | 
19 | Cc1nnc(C(C)C)n1[C@@H]1C[C@H]2CC[C@@H](C1)N2CC[C@H](NC(=O)C1CCC(F)(F)CC1)c1ccccc1 | 140 | 
20 | O=C(O)[C@H](Cc1c[nH]c2ccccc12)N1C(=O)c2ccccc2C1=O |  | viability (top concentration 92.2 µM): 116
21 | CC1=C(C=CC=C1)N2\C(=N/C3=C(C(=CC=C3)C)C2=O)C[N]4N=CC5=C4N=CN=C5N | 85.3 | 
22 | CCCCC(C=O)NC(=O)C(CC(C)C)NC(=O)OCc1ccccc1 (configuration not stated) | 82 | 
23 | COC(=O)C[C@](O)(CCCC(C)(C)O)C(=O)O[C@@H]1C(OC)=CC23CCCN2CCc2cc4c(cc2[C@H]13)OCO4 (some centres not stated) | 140 | 
24 | CCCCC[C@H](O)/C=C/[C@H]1[C@H](O)CC(=O)[C@@H]1C/C=C\CCCC(=O)O | 119 | 
25 | Cc1c(CCOc2ccc(C(=O)O)cc2)c2cc(Cl)ccc2n1C(c1ccccc1)c1ccccc1 | 113 | 
26 | CC[C@H](C)C(=O)O[C@H]1C[C@@H](C)\C=C2\C=C/[C@H](C)[C@H](CC[C@@H]3C[C@@H](O)CC(=O)O3)[C@@H]12 | 61.5 | 

Row | SMILES | viability (top concentration 46.1 µM) | also measured
27 | O=C(Nc1cc2cc[nH]c2cn1)c1ccccc1 | 55.2 | 
28 | CCNC(=O)c1cc2c(-c3cc(OCCN4CCCC4)c(Cl)cc3Cl)nc(N)nc2s1 | 58.2 | 
29 | O=P1(NCCCl)OCCCN1CCCl (configuration not stated) | 107 | 
30 | Cl.Nc1ccn([C@@H]2O[C@H](CO)[C@@H](O)C2(F)F)c(=O)n1 | 107 | 
31 | OC1=C(C=CC=C1)C2=CC=C(C=C2)C3=CSC4=C3C(=C(/C#N)C(=O)N4)/O | 125 | 
32 | C\C1=C(\C=C(C#N)/C(=O)N1)C2=C[N]3C=CN=C3C=C2 | 96 | 
33 | CO[C@H]1C[C@@H]2CC[C@@H](C)[C@@](O)(O2)C(=O)C(=O)N2CCCC[C@H]2C(=O)O[C@H]([C@H](C)C[C@@H]2CC[C@@H](OCCO)[C@H](OC)C2)CC(=O)[C@H](C)/C=C(/C)[C@@H](O)[C@@H](OC)C(=O)[C@H](C)C[C@H](C)\C=C/C=C\C=C/1C | 84.8 | 
34 | COc1cc([C@@H]2c3cc4c(cc3[C@H](O)[C@H]3COC(=O)[C@H]23)OCO4)cc(OC)c1OC | 115 | 
35 | O=C(Nc1ccccc1)Nc1ccc(-c2ccc(C(=O)[C@@H]3CCC[C@H]3C(=O)O)cc2)cc1 | 128 | 
36 | CCN1\C=C(\C(O)=O)C(=O)C2=CC=C(C)N=C12 | 92 | 
37 | Nc1nc(OCc2ccccc2)c2nc[nH]c2n1 | 111 | 
38 | Cc1cncc2cccc([S+](=O)([O-])N3CCCN(C(=O)CN)C[C@@H]3C)c12 | 138 | 
39 | CC(C)N(CCCNC(=O)Nc1ccc(C(C)(C)C)cc1)C[C@H]1O[C@@H](n2cc(Br)c3c(N)ncnc32)[C@H](O)[C@@H]1O | 89.1 | 
40 | CC[C@H](CO)Nc1nc(NCc2ccccc2)c2ncn(C(C)C)c2n1 | 42.6 | 
41 | C[C@@H](Oc1cc(-n2cnc3ccc(CN4CCN(C)CC4)cc32)sc1C(N)=O)c1ccccc1C(F)(F)F | 47.4 | 
42 | CC(C)(C)c1nc(-c2cccc(N[S+](=O)([O-])c3c(F)cccc3F)c2F)c(-c2ccnc(N)n2)s1 | 109 | 
43 | O=C(CCCN1CCC(O)(c2ccc(Cl)cc2)CC1)c1ccc(F)cc1 | 105 | 
44 | COC(=O)[C@H](Cc1ccccc1)NC(=O)[C@@H](N)CC(=O)O | 102 | 
45 | Oc1nc(-c2ccc(C(F)(F)F)cc2)nc2c1CSCC2 | 86.4 | 
46 | Cc1cccc(-c2nn(C(=S)Nc3ccccc3)cc2-c2ccnc3ccccc23)n1 | 135 | 
47 | CC[C@H]1OC(=O)[C@H](C)[C@@H](O[C@H]2C[C@@](C)(OC)[C@@H](O)[C@H](C)O2)[C@H](C)[C@@H](O[C@@H]2O[C@@H](C)C[C@H](N(C)C)[C@H]2O)[C@](C)(O)C[C@@H](C)C(=O)[C@H](C)[C@@H](O)[C@]1(C)O | 116 | 
48 | CN1CCc2c(c3ccccc3n2Cc2ccc(C(=O)NO)cc2)C1 | 107 | 
49 | O=C(O)C1=NC(C(=O)O)CC(/C=C/N2c3cc(O)c(OC4OC(CO)C(O)C(O)C4O)cc3CC2C(=O)O)=C1 (configuration not stated) | 135 | 
50 | CN1CCC(CC1)COC2=CN=C(N=C2)C3=CC(=CC=C3)CN4/N=C(\C=C/C4=O)C5=CC(=CC=C5)C#N | 96.2 | 
51 | CCc1cc2c(cc1N1CCC(N3CCOCC3)CC1)C(C)(C)c1[nH]c3cc(C#N)ccc3c1C2=O | 97.8 | 
52 | C[C@@H]1CN(Cc2ccc(F)cc2)[C@@H](C)CN1C(=O)c1cc2c(C(=O)C(=O)N(C)C)cn(C)c2cc1Cl | 101 | 

Row | SMILES | viability (top concentration 46.1 µM) | also measured
53 | OCCNC1CCCc2c1[nH]c1ccc(-c3ccccc3)cc21 (configuration not stated) | 107 | 
54 | COC1=C(OC)C(=O)C(C/C=C(\C)CC/C=C(\C)CC/C=C(\C)CC/C=C(\C)CC/C=C(\C)CC/C=C(\C)CC/C=C(\C)CC/C=C(\C)CC/C=C(\C)CCC=C(C)C)=C(C)C1=O | 118 | 
55 | CO[C@@H]1[C@H](N(C)C(=O)c2ccccc2)C[C@H]2O[C@]1(C)n1c3ccccc3c3c4c(c5c6ccccc6n2c5c31)C(=O)NC4 | 66.2 | 
56 | COc1ccc(C(=O)CC2(O)C(=O)Nc3c(Cl)ccc(Cl)c32)cc1 (configuration not stated) | 113 | 
57 | CCN(CC)CCOc1ccc(Cc2ccccc2)cc1 | 101 | 
58 | OCCC#Cc1nc(-c2ccc(F)cc2)c(-c2ccncc2)n1CCCc1ccccc1 | 64 | 
59 | Nc1nc(Nc2ccc([S+](N)(=O)[O-])cc2)nn1C(=O)c1c(F)cccc1F | 111 | 
60 | CCN1C[C@H](C)[N]2C(=C(O)C3=C2\C(=N/N(CC4=CC=C(F)C(=C4)Cl)C3=O)C(=O)NC)C1=O | 123 | 
61 | OCCN1CCN(CCCN2c3ccccc3Sc3ccc(C(F)(F)F)cc32)CC1 | 97.2 | 
62 | COc1ccc(N(C(=O)Oc2c(C)cccc2C)c2ccnc(Nc3ccc(N4CCN(C)CC4)cc3)n2)c(OC)c1 | 83.2 | 
63 | OC(=O)\C1=C\N(C2=CC=C(F)C=C2)C3=C(C=C(F)C(=C3)N4CCNCC4)C1=O | 120 | 
64 | COc1cc(F)c(C(C)C)cc1-c1ccc(C(F)(F)F)cc1CN1C(=O)O[C@H](c2cc(C(F)(F)F)cc(C(F)(F)F)c2)[C@@H]1C | 100 | 
65 | O=C(NCc1ccccc1)[C@H](Cc1ccccc1)NC(=O)[C@H]1O[C@@H]1C(=O)NCCc1ccc(O)cc1 | 107 | 
66 | Clc1ccccc1C(c1ccccc1)(c1ccccc1)n1ccnc1 | 99.5 | 
67 | O=[S+]([O-])(NCCNC/C=C/c1ccc(Br)cc1)c1cccc2cnccc12 | 72.3 | 
68 | N#C/C(=C(/N)Sc1ccc(N)cc1)c1ccccc1C(F)(F)F | 87.9 | 
69 | C[C@]\1(CCS\C(=N1)N)C2=CC(=C(F)C=C2F)C3=CN=CN=C3 | 80.2 | 
70 | CCn1c(C(=O)N(C2CC2)C2CC2)cc2c3c(ncn3C)c(Nc3cc(C)n(C)n3)nc21 | 118 | 
71 | C\C1=C\C(=O)C2=C(C=CC=C2)C1=O | 109 | 
72 | CC(C)Oc1ccc(C(=O)N[C@H](CNC(=O)CN(C)C)Cc2ccc(-c3cn4cccc([C@H](C)O)c4n3)cc2)cc1Cl | 98.1 | 
73 | C[C@@H](CN1CC(=O)NC(=O)C1)N1CC(=O)NC(=O)C1 | 118 | 
74 | Clc1ccc2c(N3CCN(CCCN4CCN(c5ccnc6cc(Cl)ccc56)CC4)CC3)ccnc2c1 |  | viability (top concentration 23 µM): 119
75 | Cc1ccnc2c1NC(=O)c1cccnc1N2C1CC1 | 138 | 
76 | CC(C)CNc1ccnc(NCc2csc(-c3ccccc3)n2)n1 | 100 | 
77 | O=c1c(-c2ccc(O)cc2)coc2cc(O[C@@H]3O[C@H](CO)[C@@H](O)[C@H](O)[C@H]3O)ccc12 | 135 | 
